Reference: patent publication US7772188B2, “Methods and compositions for the treatment of gastrointestinal disorders” (priority 2003, dated 2010)
Positions of bridges follow the written chain, without caps; N, C: chain ends. Residues, ends and D or L forms follow the SMILES beside them.

Tests used:
intestinal secretion = assay: Suckling mouse model of intestinal secretion (SuMi assay); type: in vivo; conditions: suckling mice; dose response; FIG. 5a/5b
Description: In this model a test compound is administered to suckling mice that are between 7 and 9 days old. After the mice are sacrificed, the gastrointestinal tract from the stomach to the cecum is dissected (“guts”). The remains (“carcass”) as well as the guts are weighed and the ratio of guts to carcass weight is calculated. If the ratio is above 0.09, one can conclude that the test compound increases intestinal secretion. […] The effect of Zelnorm® was also studied.

[1] = system: abdominal response to colorectal distension; assay: Trinitrobenzenesulphonic acid (TNBS)-induced rectal allodynia model, colorectal distension; type: in vivo, Wistar rats; conditions: rats, FIG. 7
Description: Male Wistar rats (220-250 g) were premedicated with 0.5 mg/kg of acepromazine injected intraperitoneally (IP) and anesthetized by intramuscular administration of 100 mg/kg of ketamine. Pairs of nichrome wire electrodes (60 cm in length and 80 μm in diameter) were implanted in the striated muscle of the abdomen, 2 cm laterally from the white line. The free ends of electrodes were exteriorized on the back of the neck and protected by a plastic tube attached to the skin. Electromyographic (EMG) recordings were started 5 days after surgery. Electrical activity of abdominal striated muscle was recorded with an electroencephalograph machine (Mini VIII, Alvar, Paris, France) using a short time constant (0.03 sec.) to remove low-frequency signals (<3 Hz).
Ten days post surgical implantation, trinitrobenzenesulphonic acid (TNBS) was administered to induce rectal inflammation. TNBS (80 mg kg^−1 in 0.3 ml 50% ethanol) was administered intrarectally through a silicone rubber catheter introduced at 3 cm from the anus under light diethyl-ether anesthesia, as described (Morteau et al. 1994 Dig Dis Sci 39:1239). […] Evaluation of rectal sensitivity, as measured by EMG, was performed before (1-2 days) and 3 days following rectal instillation of TNBS.
The number of spike bursts that corresponds to abdominal contractions was determined per 5 min periods. […]

intestinal GC-C receptor = biological target: T1, intestinal GC-C receptor (Homo sapiens, UniProt P25092); assay: Intestinal GC-C receptor activity assay (cyclic GMP by EIA in T84 cells); type: cell-based; conditions: chemically synthesized peptides, FIG. 2
T1 construct: host or cells: T84 human colon carcinoma cells
T1 sequence (P25092 24-1073): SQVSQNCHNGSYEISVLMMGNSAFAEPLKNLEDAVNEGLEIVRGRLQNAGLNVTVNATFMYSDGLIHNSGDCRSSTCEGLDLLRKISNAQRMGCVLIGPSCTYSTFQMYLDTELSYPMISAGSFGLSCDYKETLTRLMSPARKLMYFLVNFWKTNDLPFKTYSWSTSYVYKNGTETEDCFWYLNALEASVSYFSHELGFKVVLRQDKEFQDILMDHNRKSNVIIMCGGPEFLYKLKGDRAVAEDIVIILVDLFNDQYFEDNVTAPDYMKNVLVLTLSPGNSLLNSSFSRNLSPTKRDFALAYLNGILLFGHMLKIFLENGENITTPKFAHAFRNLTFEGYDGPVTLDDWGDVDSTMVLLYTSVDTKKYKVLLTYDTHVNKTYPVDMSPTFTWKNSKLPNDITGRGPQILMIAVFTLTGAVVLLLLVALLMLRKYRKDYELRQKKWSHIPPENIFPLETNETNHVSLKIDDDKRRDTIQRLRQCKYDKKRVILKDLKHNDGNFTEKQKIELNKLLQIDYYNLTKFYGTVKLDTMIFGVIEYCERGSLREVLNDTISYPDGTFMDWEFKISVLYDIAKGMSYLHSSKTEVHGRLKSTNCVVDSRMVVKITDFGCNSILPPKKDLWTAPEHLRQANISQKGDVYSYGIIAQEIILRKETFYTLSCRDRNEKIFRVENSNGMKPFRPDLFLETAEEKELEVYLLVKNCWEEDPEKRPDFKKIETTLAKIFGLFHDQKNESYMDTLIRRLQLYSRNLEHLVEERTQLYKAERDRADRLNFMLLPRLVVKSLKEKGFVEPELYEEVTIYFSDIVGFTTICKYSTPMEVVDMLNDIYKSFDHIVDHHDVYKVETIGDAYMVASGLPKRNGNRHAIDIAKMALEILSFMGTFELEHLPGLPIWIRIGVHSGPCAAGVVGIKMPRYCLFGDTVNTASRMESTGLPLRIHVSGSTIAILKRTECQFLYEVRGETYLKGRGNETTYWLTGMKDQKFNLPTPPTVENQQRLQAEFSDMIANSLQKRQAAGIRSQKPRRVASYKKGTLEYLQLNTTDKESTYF
Description: The ability of SEQ ID NO:5, SEQ ID NO:4, and SEQ ID NO:3 to activate the intestinal GC-C receptor was assessed in an assay employing the T84 human colon carcinoma cell line (American Type Culture Collection (Bethesda, Md.)). For the assays cells were grown to confluency in 24-well culture plates with a 1:1 mixture of Ham's F12 medium and Dulbecco's modified Eagle's medium (DMEM), supplemented with 5% fetal calf serum and were used at between passages 54 and 60.
Briefly, monolayers of T84 cells in 24-well plates were washed twice with 1 ml/well DMEM, then incubated at 37° C. for 10 min with 0.45 ml DMEM containing 1 mM isobutylmethylxanthine (IBMX), a cyclic nucleotide phosphodiesterase inhibitor. Test peptides (50 μl) were then added and incubated for 30 minutes at 37° C. The media was aspirated and the reaction was then terminated by the addition of ice cold 0.5 ml of 0.1N HCl. The samples were held on ice for 20 minutes and then evaporated to dryness using a heat gun or vacuum centrifugation. The dried samples were resuspended in 0.5 ml of phosphate buffer provided in the Cayman Chemical Cyclic GMP EIA kit (Cayman Chemical, Ann Arbor, Mich.). Cyclic GMP was measured by EIA according to procedures outlined in the Cayman Chemical Cyclic GMP EIA kit.

[2] = biological target: T2, GC-C receptors found in rat intestinal mucosa (Rattus norvegicus, UniProt P23897); assay: biochemical
T2 sequence (P23897 23-1072): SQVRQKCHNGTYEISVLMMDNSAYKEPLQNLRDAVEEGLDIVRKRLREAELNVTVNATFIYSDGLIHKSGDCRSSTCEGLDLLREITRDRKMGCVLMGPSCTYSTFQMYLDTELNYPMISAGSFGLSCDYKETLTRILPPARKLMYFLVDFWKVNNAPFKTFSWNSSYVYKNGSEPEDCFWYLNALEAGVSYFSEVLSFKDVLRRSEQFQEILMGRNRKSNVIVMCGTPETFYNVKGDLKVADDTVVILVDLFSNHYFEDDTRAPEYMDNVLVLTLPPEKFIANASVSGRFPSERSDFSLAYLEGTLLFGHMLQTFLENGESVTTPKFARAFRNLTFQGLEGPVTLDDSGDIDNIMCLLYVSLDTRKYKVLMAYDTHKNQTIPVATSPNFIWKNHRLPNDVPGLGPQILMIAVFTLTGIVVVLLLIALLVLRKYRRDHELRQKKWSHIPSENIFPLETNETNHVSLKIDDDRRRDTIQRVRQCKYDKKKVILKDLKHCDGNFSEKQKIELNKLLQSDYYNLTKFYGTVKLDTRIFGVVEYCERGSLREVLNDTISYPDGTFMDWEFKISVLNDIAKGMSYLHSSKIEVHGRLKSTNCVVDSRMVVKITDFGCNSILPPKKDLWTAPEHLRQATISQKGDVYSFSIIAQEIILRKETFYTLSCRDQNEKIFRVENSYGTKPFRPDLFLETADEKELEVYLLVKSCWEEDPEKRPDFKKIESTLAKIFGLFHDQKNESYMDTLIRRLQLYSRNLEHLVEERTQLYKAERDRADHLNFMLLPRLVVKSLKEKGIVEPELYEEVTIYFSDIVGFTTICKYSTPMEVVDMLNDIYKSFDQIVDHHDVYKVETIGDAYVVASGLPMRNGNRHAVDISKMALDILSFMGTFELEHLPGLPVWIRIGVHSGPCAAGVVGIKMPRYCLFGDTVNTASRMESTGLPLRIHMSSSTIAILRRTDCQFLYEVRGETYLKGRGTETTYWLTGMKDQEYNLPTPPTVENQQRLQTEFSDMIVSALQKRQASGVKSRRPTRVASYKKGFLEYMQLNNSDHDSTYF
Description: To determine the affinity of SEQ ID NO:3 for GC-C receptors found in rat intestinal mucosa, a competition binding assay was performed using rate intestinal epithelial cells. Epithelial cells from the small intestine of rats were obtained as described by Kessler et al. (J. Biol. Chem. 245: 5281-5288 (1970)). Briefly, animals were sacrificed and their abdominal cavities exposed. The small intestine was rinsed with 300 ml ice cold saline or PBS. 10 cm of the small intestine measured at 10 cm from the pylorus was removed and cut into 1 inch segments. Intestinal mucosa was extruded from the intestine by gentle pressure between a piece of parafilm and a P-1000 pipette tip. Intestinal epithelial cells were placed in 2 ml PBS and pipetted up and down with a 5 ml pipette to make a suspension of cells.
A competition binding assay was performed based on the method of Giannella et al. (Am. J. Physiol. 245: G492-G498) between [^125I] labeled SEQ ID NO:4 and SEQ ID NO:3. The assay mixture contained: 0.5 ml of DME with 20 mM HEPES-KOH pH 7.0, 0.9 mg of the cell suspension listed above, 21.4 fmol [^125I]-SEQ ID NO:4 (42.8 pM), and different concentrations of competitor SEQ ID NO:3 (0.01 to 1000 nM). […] The filters were washed with 5 ml ice-cold PBS and radioactivity was measured.

C[C@@H]1NC(=O)[C@@H]2CCCN2C(=O)[C@H](CC(N)=O)NC(=O)[C@@H]2CSSC[C@H](N)C(=O)N[C@H]3CSSC[C@H](NC1=O)C(=O)N[C@@H]([C@@H](C)O)C(=O)NCC(=O)N[C@H](C(=O)N[C@@H](Cc1ccc(O)cc1)C(=O)O)CSSC[C@H](NC(=O)[C@H](Cc1ccc(O)cc1)NC(=O)[C@H](CCC(=O)O)NC3=O)C(=O)N2 [SEQ ID NO:3, Cys Cys Glu Tyr Cys Cys Asn Pro Ala Cys Thr Gly Cys Tyr] (H-CCEYCCNPACTGCY-OH; disulfide 1-6, 2-10, 5-13; N-terminus and C-terminus assumed)
intestinal secretion (guts to carcass weight ratio) (intestinal secretion): increase intestinal secretion
abdominal response (abdominal contractions, EMG) ([1]; 0.3 μg/kg): Significant decreases in abdominal response
abdominal response (abdominal contractions, EMG) ([1]; 3 μg/kg): Significant decreases in abdominal response
activity in GC-C receptor activity assay (intestinal GC-C receptor): activity comparable to SEQ ID NO:4
Kd [2]: 4.5 nM
